Values quoted from earlier work in patent US20110171138A1, “SUBSTANTIALLY PURE DEFERASIROX AND PROCESSES FOR THE PREPARATION THEREOF” (ACTAVIS GROUP PTC EHF, priority 2008, published 2011).

Settings: in water and in acid medium; the solubility increasing with pH

solubility: practically insoluble
SMILES: O=C(O)c1ccc(-n2nc(-c3ccccc3O)nc2-c2ccccc2O)cc1 [Deferasirox, 4-[3,5-Bis(2-hydroxyphenyl)-1H-1,2,4-triazol-1-yl]benzoic acid]
